The assay addresses T1, cytoplasmic kinase domain of human IGF-1R (IGF-1R-GST) (Homo sapiens, UniProt P08069).
T1 construct: cytoplasmic kinase domain of human IGF-1R (amino acids 964-1370); GST (glutathione-S-transferase); made in house; host or cells: High Five insect cells (Invitrogen)
Nature of the assay: Insulin-like growth factor-1 receptor (IGF-1R) kinase assay (DELFIA). It counts as biochemical. The settings on record: IGF-1R-GST kinase activity, read-out: IGF1R IC50. On the procedure: Insulin-Like Growth Factor-1 Receptor (IGF-1R)-Kinase Assay
The kinase activity is measured by DELFIA® assay (dissociation-enhanced lanthanide fluorescence immunoassay, Perkin Elmer). […] Enzyme activity is measured in the presence of substances and a control substance. Poly-glutamate-tyrosine peptide (pEY, Sigma Aldrich) and biotinylated pEY (bio-pEY) are used as reaction substrates.
After 40 min at RT the reactions are stopped with 50 μL of stop solution (250 mM EDTA, 20 mM HEPES pH 7.4). 90 μL from each reaction are transferred onto streptavidin-coated 96-well plates. After 120 min incubation at RT the plates are washed three times with 200 μL phosphate-buffered saline (PBS) per well. The plates are incubated for 60 min with 100 μL of europium-coupled antibody against phospho-tyrosine (diluted 1/2000 in Perkin Elmer DELFIA assay buffer) per well. The plates are washed three times with 200 μL per well of DELFIA washing buffer. 100 μL DELFIA Enhancement Solution (Perkin Elmer) is added to each well, and the plates are incubated for 10 min. The fluorescence signal is measured with a Wallac Victor TRF Reader. IC50 values for the inhibition of the IGF-1R-kinase activity are calculated using the programmes Fifty (Version 2) and GraphPad (Version 3.0).

The results in this text go back to patent publication US8546443B2, “Benzylic oxindole pyrimidines” (Boehringer Ingelheim International GmbH, priority 2010, dated 2013).

Structures are written as SMILES.

T1 sequence (P08069 964-1367 limits assumed): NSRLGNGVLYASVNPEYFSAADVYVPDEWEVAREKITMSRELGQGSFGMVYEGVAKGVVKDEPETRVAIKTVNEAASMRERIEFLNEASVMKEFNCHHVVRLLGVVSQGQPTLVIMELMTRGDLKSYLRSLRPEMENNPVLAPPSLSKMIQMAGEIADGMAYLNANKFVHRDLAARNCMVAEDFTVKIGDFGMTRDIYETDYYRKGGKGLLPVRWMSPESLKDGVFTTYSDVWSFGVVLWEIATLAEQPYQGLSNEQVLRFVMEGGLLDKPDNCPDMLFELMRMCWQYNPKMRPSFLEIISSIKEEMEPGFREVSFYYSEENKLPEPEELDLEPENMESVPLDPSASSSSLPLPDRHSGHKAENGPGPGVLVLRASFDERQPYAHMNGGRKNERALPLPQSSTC

Turning to `COc1cc(N2CC3CC2CN3CC2CC2)ccc1Nc1ncc(C(F)(F)F)c(NCc2cccc3c2C(C)(C)C(=O)N3)n1` (centres unmarked) [Example I-149], the concentration for half-maximal inhibition (IC50) was determined as 2 nM.

`COc1cc(N2CCC(N3CCOCC3)CC2)ccc1Nc1ncc(C(F)(F)F)c(NCc2cccc3c2CC(=O)N3)n1` [Example I-196]: the 50% inhibitory concentration (IC50) worked out at 8 nM. Take `COCCNC1CCN(c2ccc(Nc3ncc(C(F)(F)F)c(NCc4cccc5c4CC(=O)N5)n3)c(OC)c2)CC1` [Example I-179]: the IC50 was found to be 2 nM. Take `COc1cc(N2CC3CC2CN3C2CCOCC2)ccc1Nc1ncc(C(F)(F)F)c(NCc2cccc3c2C(C)(C)C(=O)N3)n1` (centres unmarked) [Example I-150]: the half-inhibitory concentration (IC50) turned out to be 3 nM.

On to `COc1cc(N2CC3CC2CN3C2CCN(C)CC2)ccc1Nc1ncc(C(F)(F)F)c(NCc2cccc3c2C(C)(C)C(=O)N3)n1` (centres unmarked) [Example I-147], for which the IC50 is 5 nM.

As to `COc1cc(N2CCC(N3CCN(C(C)=O)CC3)CC2)ccc1Nc1ncc(C(F)(F)F)c(NCc2cccc3c2CC(=O)N3)n1` [Example I-201], the IC50 was 20 nM. For `CCOC(=O)N1CCN(c2ccc(Nc3ncc(C(F)(F)F)c(NCc4cccc5c4CC(=O)N5)n3)c(OC)c2)CC1` [Example I-72], the IC50 is 72 nM.

For the molecule `COc1cc(N2CCC(N3CCC(F)(F)CC3)CC2)ccc1Nc1ncc(C(F)(F)F)c(NCc2cccc3c2CC(=O)N3)n1` [Example I-199], the concentration for half-maximal inhibition (IC50) is 11 nM. Take `COc1cc(N2CCC(N(C)C)CC2)ccc1Nc1ncc(C(F)(F)F)c(NCc2cccc3c2C(C)(C)C(=O)N3)n1` [Example I-181]: the IC50 is 2 nM.

Regarding `COc1cc(N2CCC(N3CCC(O)CC3)CC2)ccc1Nc1ncc(C(F)(F)F)c(NCc2cccc3c2C(C)(C)C(=O)N3)n1` [Example I-177], the IC50 was found to be 1 nM.

Take `CCOc1cc(N2CCN(C)CC2)ccc1Nc1ncc(C(F)(F)F)c(NCc2cccc3c2C(C)(C)C(=O)N3)n1` [Example I-142]: the half-inhibitory concentration (IC50) came to 0.55 nM.

On to `COc1cc(N2CCC(NCC(C)(C)OC)CC2)ccc1Nc1ncc(C(F)(F)F)c(NCc2cccc3c2C(C)(C)C(=O)N3)n1` [Example I-173], for which the IC50 is 0.46 nM. Regarding `COc1cc(N2CCNCC2)ccc1Nc1ncc(C(F)(F)F)c(NCc2cccc3c2C(C)(C)C(=O)N3C)n1` [Example I-30], the half-maximal inhibitory concentration (IC50) is 3 nM. For `COc1cc(N2CCC(N3CCN(S(C)(=O)=O)CC3)CC2)ccc1Nc1ncc(C(F)(F)F)c(NCc2cccc3c2C(C)(C)C(=O)N3)n1` [Example I-25], the IC50 is 7 nM. Take `COc1cc(N2CCN(C(=O)CN(C)C)CC2)ccc1Nc1ncc(C(F)(F)F)c(NCc2cccc3c2C(C)(C)C(=O)N3)n1` [Example I-84]: the IC50 came out at 0.3 nM. With `COc1cc(N2CCN(C3CCOCC3)CC2)ccc1Nc1ncc(Cl)c(NCc2cccc3c2C(C)(C)C(=O)N3)n1` [Example I-95], the half-maximal inhibitory concentration (IC50) was determined as 16 nM. Take `CNC(=O)CN1CCC(c2ccc(Nc3ncc(Cl)c(NCc4cccc5c4C(C)(C)C(=O)N5)n3)cc2)CC1` [Example I-206]: the concentration for half-maximal inhibition (IC50) is 5 nM.

Take `COc1cc(N2CCN(CC3CC3)CC2)ccc1Nc1ncc(C(F)(F)F)c(NCc2cccc3c2CC(=O)N3)n1` [Example I-165]: the half-inhibitory concentration (IC50) is 4 nM. On to `COc1cc(N2CCN(C(=O)CCCN(C)C)CC2)ccc1Nc1ncc(C(F)(F)F)c(NCc2cccc3c2C(C)(C)C(=O)N3)n1` [Example I-86], for which the half-maximal inhibitory concentration (IC50) worked out at 1 nM. With `COc1cc(N2CCC(N3CCN(C4CCN(C)CC4)CC3)CC2)ccc1Nc1ncc(C(F)(F)F)c(NCc2cccc3c2CC(=O)N3)n1` [Example I-193], the IC50 came out at 7 nM.

For `COCCN(C)C1CCN(c2ccc(Nc3ncc(C(F)(F)F)c(NCc4cccc5c4CC(=O)N5)n3)c(OC)c2)CC1` [Example I-197], the 50% inhibitory concentration (IC50) is 9 nM. `COc1cc(N2CCN(C3CCN(S(C)(=O)=O)CC3)CC2)ccc1Nc1ncc(C(F)(F)F)c(NCc2cccc3c2CC(=O)N3)n1` [Example I-125]: the concentration for half-maximal inhibition (IC50) worked out at 15 nM. With `COc1cc(N2CCC(N3CCN(S(C)(=O)=O)CC3)CC2)ccc1Nc1ncc(C(F)(F)F)c(NCc2cccc3c2CC(=O)N3)n1` [Example I-26], the half-maximal inhibitory concentration (IC50) worked out at 9 nM. Turning to `CCOc1cc(N2CCN(CC)CC2)ccc1Nc1ncc(C(F)(F)F)c(NCc2cccc3c2CC(=O)N3)n1` [Example I-140], the 50% inhibitory concentration (IC50) was determined as 11 nM.

Take `COc1cc(N2CCN(C3CCC3)CC2)ccc1Nc1ncc(C(F)(F)F)c(NCc2cccc3c2C(C)(C)C(=O)N3)n1` [Example I-155]: the IC50 was 1 nM. Turning to `COc1cc(N2CCN(C(C)C)CC2)ccc1Nc1ncc(C(F)(F)F)c(NCc2cccc3c2C(C)(C)C(=O)N3)n1` [Example I-136], the IC50 was determined as 2 nM. Turning to `CCN1CCN(c2ccc(Nc3ncc(Cl)c(NCc4cccc5c4C(C)(C)C(=O)N5)n3)c(OC)c2)CC1` [Example I-99], the IC50 worked out at 2 nM. The result for `COc1cc(N2CCN(C(C)C)CC2)ccc1Nc1ncc(C(F)(F)F)c(NCc2cccc3c2CC(=O)N3)n1` [Example I-116] reads 10 nM; that for `CC(=O)N1CCC(n2cc(Nc3ncc(Cl)c(NCc4cccc5c4C(C)(C)C(=O)N5)n3)cn2)CC1` [Example I-2], 21 nM. As for `CC1(C)C(=O)Nc2cccc(CNc3nc(Nc4ccc(C5CCN(C6COC6)CC5)cc4)ncc3Cl)c21` [Example I-93], the half-maximal inhibitory concentration (IC50) stood at 5 nM.

For `CC(C)(O)CN1CCC(c2ccc(Nc3ncc(C(F)(F)F)c(NCc4cccc5c4C(C)(C)C(=O)N5)n3)c3c2OCO3)CC1` [Example I-315], the IC50 amounted to 1.9 nM. Consider `COCCC(=O)N1CCN(c2ccc(Nc3ncc(C(F)(F)F)c(NCc4cccc5c4C(C)(C)C(=O)N5)n3)c(OC)c2)CC1` [Example I-85], for which the IC50 was 9 nM.

Take `COc1cc(N2CC3CC2CN3C(C)C)ccc1Nc1ncc(C(F)(F)F)c(NCc2cccc3c2C(C)(C)C(=O)N3)n1` (centres unmarked) [Example I-152]: the IC50 amounted to 3 nM. As to `COc1cc(N2CC3CC2CN3C)ccc1Nc1ncc(C(F)(F)F)c(NCc2cccc3c2C(C)(C)C(=O)N3)n1` (centres unmarked) [Example I-151], the IC50 was determined as 2 nM. The result for `CCOc1cc(N2CCN(C(C)=O)CC2)ccc1Nc1ncc(C(F)(F)F)c(NCc2cccc3c2C(C)(C)C(=O)N3)n1` [Example I-79] reads 4 nM; that for `CNC1CCN(c2ccc(Nc3ncc(C(F)(F)F)c(NCc4cccc5c4CC(=O)N5)n3)c(OC)c2)CC1` [Example I-187], 4 nM. Regarding `COc1cc(N2CCC(N3CCC(N(C)C)CC3)CC2)ccc1Nc1ncc(C(F)(F)F)c(NCc2cccc3c2CC(=O)N3)n1` [Example I-182], the half-maximal inhibitory concentration (IC50) turned out to be 3 nM. In the case of `COCC(=O)N1CCN(c2ccc(Nc3ncc(C(F)(F)F)c(NCc4cccc5c4C(C)(C)C(=O)N5)n3)c(OC)c2)CC1` [Example I-83], the concentration for half-maximal inhibition (IC50) was 5 nM. With `COCCN(C)C1CCN(c2ccc(Nc3ncc(C(F)(F)F)c(NCc4cccc5c4C(C)(C)C(=O)N5)n3)c(OC)c2)CC1` [Example I-175], the concentration for half-maximal inhibition (IC50) was 0.87 nM. For the molecule `COc1cc(N2CCN(C(=O)CCN3CCCC3)CC2)ccc1Nc1ncc(Cl)c(NCc2cccc3c2C(C)(C)C(=O)N3)n1` [Example I-59], the concentration for half-maximal inhibition (IC50) was found to be 4 nM. For `COc1cc(N2CCC(N3CCC(C#N)CC3)CC2)ccc1Nc1ncc(C(F)(F)F)c(NCc2cccc3c2CC(=O)N3)n1` [Example I-195], the IC50 is 7 nM. Take `COc1cc(N2CCN(C(C)=O)CC2)ccc1Nc1ncc(C(F)(F)F)c(NCc2cccc3c2CC(=O)N3)n1` [Example I-70]: the IC50 was found to be 21 nM. As for `COc1cc(N2CCN(C(=O)CN(C)C)CC2)ccc1Nc1ncc(Cl)c(NCc2cccc3c2C(C)(C)C(=O)N3)n1` [Example I-62], the half-inhibitory concentration (IC50) worked out at 1 nM.

`CCOc1cc(N2CCN(C(C)C)CC2)ccc1Nc1ncc(C(F)(F)F)c(NCc2cccc3c2C(C)(C)C(=O)N3)n1` [Example I-143]: the concentration for half-maximal inhibition (IC50) was determined as 1 nM. With `CC(C)(C)OC(=O)N1CC(C(=O)N2CCC(c3ccc(Nc4ncc(Cl)c(NCc5cccc6c5C(C)(C)C(=O)N6)n4)cc3)CC2)C1` [Example I-47], the IC50 is 38 nM. In the case of `CCOc1cc(N2CCN(C)CC2)ccc1Nc1ncc(C(F)(F)F)c(NCc2cccc3c2CC(=O)N3)n1` [Example I-138], the 50% inhibitory concentration (IC50) worked out at 13 nM.

`COc1cc(N2CCN(C3CCN(CC#N)CC3)CC2)ccc1Nc1ncc(C(F)(F)F)c(NCc2cccc3c2CC(=O)N3)n1` [Example I-113]: the IC50 worked out at 3 nM. For the molecule `COc1cc(N2CCN(C(=O)C3CCN(C)CC3)CC2)ccc1Nc1ncc(Cl)c(NCc2cccc3c2C(C)(C)C(=O)N3)n1` [Example I-60], the IC50 is 3 nM. As for `CC(C)(C)OC(=O)N1CCC[C@H]1C(=O)N1CCC(c2ccc(Nc3ncc(Cl)c(NCc4cccc5c4C(C)(C)C(=O)N5)n3)cc2)CC1` [Example I-44], the concentration for half-maximal inhibition (IC50) was 25 nM. The result for `COc1cc(N2CCN(C(=O)C3CCN(C)CC3)CC2)ccc1Nc1ncc(C(F)(F)F)c(NCc2cccc3c2C(C)(C)C(=O)N3)n1` [Example I-87] reads 3 nM; that for `COc1cc(N2CCN(C(=O)C3CCCN(C)C3)CC2)ccc1Nc1ncc(Cl)c(NCc2cccc3c2C(C)(C)C(=O)N3)n1` (centres unmarked) [Example I-63], 2 nM.

On to `COc1cc(N2CCNCC2)ccc1Nc1ncc(Cl)c(NCc2cccc3c2C(C)(C)C(=O)N3)n1` [Example I-254], for which the IC50 was 2.2 nM.

Regarding `COc1cc(N2CCN(C3CCN(C4CC4)CC3)CC2)ccc1Nc1ncc(C(F)(F)F)c(NCc2cccc3c2CC(=O)N3)n1` [Example I-112], the half-inhibitory concentration (IC50) was determined as 5 nM.
